The values below come from US20140107171A1, “Methods of Treating an Overweight or Obese Subject” (Zafgen, Inc., priority 2008, published 2014).

For the test, the system named is diet-induced obese mice. The test can be described thus: Weight loss study in diet-induced obese mice, oral administration. The test is classed as in vivo. Conditions: C57BL/6NTac mice on 60% fat diet; 1.0 mg/kg orally in 10% gelucire in deionised water, once a day for 8 days. Here is the method: A weight loss study is conducted in obese mice. The mice in this study are not genetically obese, BUT prior to and during the study, obesity is induced by a high-fat diet. Twelve week-old C57BL/6NTac mice, are maintained on a 60% fat diet prior to and during the study, are separated into […], eight animals per group. Average body weight of the mice is taken at the start of the study.
Each of six groups is orally administered 1.0 mg/kg of a compound disclosed herein in 10% gelucire in DEIONISED water. Each of these six groups is administered a different compound. One group is orally administered fumagillin at 1.0 mg/kg in 10% gelucire in deionised water, and one group is administered 10% gelucire in deionised water (vehicle). Mice receive administrations once a day for 8 days.

Molecules are shown by their SMILES.

Turning to `CO[C@@H]1[C@H](OC(=O)/C=C/C=C/C=C/C=C/C(=O)O)CC[C@]2(CO2)[C@H]1[C@@]1(C)O[C@@H]1CC=C(C)C` [fumagillin], the “body weight change over the course of the 8 days” value is reported as “weight over the course of the 8 days”.
